According to US8299067B2, “5-demethoxyfumagillol and derivatives thereof” (Versitech Limited, priority 2008, dated 2012):

How the values were obtained:
[1] = test system: bovine arotic endothelial cells (BAEC); experiment: BAEC proliferation assay; assay type: cell-based; settings: tritiated thymidine incorporation, 24 hours drug plus 6 hours label, 0.5% DMSO
Procedure: (A) BAEC Proliferation Assay
About 2500 bovine arotic endothelial cells (BAEC) in 195 μl of DMEM (Dulbecco's Modified Eagle's Medium) were plated per well of a 96-well plate and grown at 37° C. and 5% CO2. Cells were allowed to recover for 12 hours. 1 μL of 200 times drug stock solution was added to each treatment well. The final vehicle (DMSO) concentration was 0.5%. Vehicle only was used as a control for maximum proliferation. Three wells were treated for each drug concentration. After 24 hours, 1 μCi of tritiated thymidine (diluted in DMEM to a total volume of 10 μL) was added to each well. After additional 6 hours incubation, each well was washed in 180 μl of PBS buffer. 70 μL of trypsin was added to each well. Plates were incubated for 5 minutes at 37° C. Cells were harvested using a Harvester 96 Mach III M (Tomtec) and transferred to glass fiber filters (Wallac). 6 mL of Betaplate Scint (PerkinElmer) was added to each filter in a sealed sample bag. Scintillation counting was done in using a 1450 MicroBeta counter (Wallac). CPM were normalized to vehicle control, averaged across three replicates, and fit to the following equation using GraphPadPrism v4.0: Y=Bottom+(Top-Bottom)/(1+10^((Log EC50−X)*HillSlope)) wherein X is the logarithm of concentration and Y is the response. Y started at Bottom and went to Top with a sigmoid shape. The bottom value was constrained to zero.

[2] = target: T1, Recombinant human MetAP-2 (Homo sapiens, UniProt P50579); experiment: MetAP-2 enzymatic assay; assay type: biochemical; settings: 1 nM purified human MetAP-2, inhibitor incubated at 37° C. for 30 minutes, 1 mM Met-Gly-Met-Met, released methionine
T1 construct: made in house; host or cells: insect cells
Procedure: (B) MetAP-2 Enzymatic Assay Recombinant human MetAP-2 was expressed and purified from insect cells as previously described (Li, X.; Chang, Y.-H. Biochem. Biophys. Res. Commun. 1996, 227, 152). […] To start the enzymatic reaction, […] was added to a concentration of 1 mM to the reaction mixture. Released methionine was quantified at different time points (0, 2, 3 and 5 min) using the method of Zuo et al (Zuo, S.; Guo, Q.; Ling, C.; Chang, Y-.H. Mol. Gen. Genet. 1995, 246, 247).

T1 sequence (P50579 whole entry): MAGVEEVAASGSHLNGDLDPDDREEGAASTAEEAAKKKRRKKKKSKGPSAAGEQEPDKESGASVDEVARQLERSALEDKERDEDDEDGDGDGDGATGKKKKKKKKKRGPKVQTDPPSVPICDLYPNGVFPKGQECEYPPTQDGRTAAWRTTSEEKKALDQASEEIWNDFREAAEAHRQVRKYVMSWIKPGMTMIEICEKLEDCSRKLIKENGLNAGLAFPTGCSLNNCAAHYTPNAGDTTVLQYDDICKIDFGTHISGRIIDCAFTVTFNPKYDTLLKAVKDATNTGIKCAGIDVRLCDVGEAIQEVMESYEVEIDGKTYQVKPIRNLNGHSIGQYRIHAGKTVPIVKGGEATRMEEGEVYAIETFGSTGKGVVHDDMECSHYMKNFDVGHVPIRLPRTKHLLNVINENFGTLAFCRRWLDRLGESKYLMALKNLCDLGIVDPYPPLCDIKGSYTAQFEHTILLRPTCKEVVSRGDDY

IC50 [2] [nM] | Compound | IC50 ([1]; Bos taurus, BAEC, 30 h) [nM] | IC50 [1] [nM]
– | CC(C)=CC[C@H]1O[C@]1(C)[C@H]1C[C@H](OC(=O)N2CCCCC2)CC[C@]12CO2 [Compound 17t] | 0.081 | –
27 | COC(=O)[C@@H](NC(=O)O[C@@H]1CC[C@]2(CO2)[C@@H]([C@@]2(C)O[C@@H]2CC=C(C)C)C1)C(C)C [Compound 17p] | 0.062 | –
47 | C=CCNC(=O)[C@H](Cc1ccccc1)NC(=O)O[C@@H]1CC[C@]2(CO2)[C@@H]([C@@]2(C)O[C@@H]2CC=C(C)C)C1 [Compound 17i] | 0.059 | –
– | C=CCN1CCN(C(=O)O[C@@H]2CC[C@]3(CO3)[C@@H]([C@@]3(C)O[C@@H]3CC=C(C)C)C2)CC1 [Compound 17x] | 0.047 | –
19 | CC(C)=CC[C@H]1O[C@]1(C)[C@H]1C[C@H](OC(=O)N[C@H](C(=O)NC2CC2)C(C)C)CC[C@]12CO2 [Compound 17n] | 0.031 | –
42 | CC(C)=CC[C@H]1O[C@]1(C)[C@H]1C[C@H](OC(=O)N[C@@H](C(N)=O)c2ccccc2)CC[C@]12CO2 [Compound 17e] | 0.085 | –
– | CC(C)=CC[C@H]1O[C@]1(C)[C@H]1C[C@H](OC(=O)N2CCOCC2)CC[C@]12CO2 [Compound 17z] | 0.048 | –
– | CC(C)=CC[C@H]1O[C@]1(C)[C@H]1C[C@H](OC(=O)N2CCC2)CC[C@]12CO2 [Compound 17r] | 0.038 | –
29 | CC(C)=CC[C@H]1O[C@]1(C)[C@H]1C[C@H](OC(=O)N[C@@H](C(N)=O)C(C)C)CC[C@]12CO2 [Compound 17a] | 0.21 | –
975 | CC(C)=CCC1OC1(C)C1CC(O)CCC12CO2 (stereo not shown) [5-Demethoxyfumagillol, 5-demethoxyfumagillol] | – | 0.28
– | CC(C)=CC[C@H]1O[C@]1(C)[C@H]1C[C@H](OC(=O)NN2CCCCC2)CC[C@]12CO2 [Compound 17ab] | 0.04 | –
– | CC(C)=CC[C@H]1O[C@]1(C)[C@H]1C[C@H](OC(=O)Nc2nccs2)CC[C@]12CO2 [Compound 17ac] | 0.038 | –
– | CC(C)=CC[C@H]1O[C@]1(C)[C@H]1C[C@H](OC(=O)N2CCN(C)CC2)CC[C@]12CO2 [Compound 17u] | 0.089 | –
44 | CC(C)=CC[C@H]1O[C@]1(C)[C@H]1C[C@H](OC(=O)N[C@@H](Cc2ccccc2)C(=O)N2CCOCC2)CC[C@]12CO2 [Compound 17h] | 0.079 | –
– | CC(C)=CC[C@H]1O[C@]1(C)[C@H]1C[C@H](OC(=O)N2CCCC2)CC[C@]12CO2 [Compound 17s] | 0.04 | –
– | CC(C)=CC[C@H]1O[C@]1(C)[C@H]1C[C@H](OC(=O)N2CCN(C3CCCC3)CC2)CC[C@]12CO2 [Compound 17y] | 0.031 | –
12 | CC(C)=CC[C@H]1O[C@]1(C)[C@H]1C[C@H](OC(=O)N[C@@H](Cc2ccccc2)C(=O)N2CCN(Cc3ccc(F)cc3)CC2)CC[C@]12CO2 [Compound 17k] | 0.21 | –
39 | CC(C)=CC[C@H]1O[C@]1(C)[C@H]1C[C@H](OC(=O)N[C@H](CC(C)C)C(N)=O)CC[C@]12CO2 [Compound 17f] | 0.092 | –
– | CC(C)=CC[C@H]1O[C@]1(C)[C@H]1C[C@H](OC(=O)N2CCN(CC3CCCCC3)CC2)CC[C@]12CO2 [Compound 17w] | 0.074 | –
28 | CC(C)=CC[C@H]1O[C@]1(C)[C@H]1C[C@H](OC(=O)N[C@H](C(=O)NC2CCCC2)C(C)C)CC[C@]12CO2 [Compound 17o] | 0.035 | –
26 | CC(C)=CC[C@H]1O[C@]1(C)[C@H]1C[C@H](OC(=O)N2CCN(c3ccc([N+](=O)[O-])cc3)CC2)CC[C@]12CO2 [Compound 17q] | 0.02 | –
21 | C#CCNC(=O)[C@@H](Cc1ccccc1)NC(=O)O[C@@H]1CC[C@]2(CO2)[C@@H]([C@@]2(C)O[C@@H]2CC=C(C)C)C1 [Compound 17l] | 0.051 | –
11 | COc1ccc(CNC(=O)[C@H](Cc2ccccc2)NC(=O)O[C@@H]2CC[C@]3(CO3)[C@@H]([C@@]3(C)O[C@@H]3CC=C(C)C)C2)cc1 [Compound 17m] | 0.19 | –
– | CC(C)=CC[C@H]1O[C@]1(C)[C@H]1C[C@H](OC(=O)N2CCN(c3ccc(F)cc3)CC2)CC[C@]12CO2 [Compound 17v] | 0.068 | –
50 | CC(C)=CC[C@H]1O[C@]1(C)[C@H]1C[C@H](OC(=O)N[C@H](C(N)=O)C(C)C)CC[C@]12CO2 [Compound 17b] | 0.11 | –

Compound | IC50 [2] [nM] | IC50 ([1]; Bos taurus, BAEC, 30 h) [nM] | IC50 [1] [nM]
CC(C)=CC[C@H]1O[C@]1(C)[C@H]1C[C@H](OC(=O)N[C@@H](Cc2ccccc2)C(N)=O)CC[C@]12CO2 [Compound 17d] | 56 | 0.067 | –
CO[C@@H]1[C@H](O)CC[C@]2(CO2)[C@H]1[C@@]1(C)O[C@@H]1CC=C(C)C [Fumagillol] | 909 | – | 2.04
CC(C)=CC[C@H]1O[C@]1(C)[C@H]1C[C@H](OC(=O)N[C@@H](Cc2ccccc2)C(=O)NCCCN=[N+]=[N-])CC[C@]12CO2 [Compound 17g] | 41 | 1.41 | –
CC(C)=CC[C@H]1O[C@]1(C)[C@H]1C[C@H](OC(=O)N[C@H](Cc2ccccc2)C(N)=O)CC[C@]12CO2 [Compound 17c] | 16 | 0.039 | –
CC(C)=CC[C@H]1O[C@]1(C)[C@H]1C[C@H](OC(=O)N[C@@H](Cc2ccccc2)C(=O)NC2CC2)CC[C@]12CO2 [Compound 17j] | 41 | 0.027 | –
